Test results published in patent EP0421199A2, “(+)-(2-Hydroxy)-2-adamantyl)-1-imidazolyl-3-tolyl-methane and its salts, process for its preparation, medicine containing this compound and its use” (HOECHST AKTIENGESELLSCHAFT, priority 1989, dated 1991).
Values joined by “and” are separate entries in the source; they are usually repeats but may differ in a detail not shown here. Equal entries are not always repeated. Where two headings read alike, the source gives them in different places.

Legend:
[1] = tested on: Yohimbin-Toxizität; test: Potentiation of yohimbine toxicity in mice (Methode 2); type: in vivo, Maus; conditions: Methode 2, mouse; for LD50, mg/kg p.o.: 1 h before yohimbine hydrochloride 20 mg/kg s.c., deaths after 18 h
Procedure: Die Toxizität von Yohimbin, einem Blocker präsynaptischer alpha-Rezeptoren, wird durch Antidepressiva potenziert (Literatur R.M. Quinton, Brit. J. Pharmac. 21 , 55-56 (1963)). Männliche Mäuse, NMRI-Stamm, 20-22 g, wurden in Versuchsgruppen zu n = 10 zugeordnet. Das Prüfpräparat wurde in 1 %igem wäßrigen Tylose@-Schleim suspendiert und im Volumen 10 ml/kg oral gegeben. Kontrollen erhielten nur das Vehikel.
Nach einer Vorbehandlungszeit von 1 Stunde erhielten alle Tiere eine allein nicht toxische Dosis von Yohimbin-Hydrochlorid, 20 mg/kg subkutan. Die verstorbenen Tiere wurden 18 Stunden nach dieser Behandlung ermittelt. (Berechnung der LDso mit Probit-Analyse).

[2] = tested on: Stereotypien; test: Induction of stereotypies in rats (Methode 3); type: in vivo; conditions: Methode 3, rat, p.o.; dose up to which no stereotypies were seen
Text: Die Versuche wurden an Wistar-Ratten, männlich, 130-140 g durchgeführt. Die Stereotypien wurden in den ersten beiden Stunden nach Substanzgabe in 15-Minuten-Intervallen beurteilt, danach bis zur 6. Stunde in halbstündigen Intervallen. Die folgende Skala wurde benutzt.
Die Punktzahlen wurden errechnet alß Gesamtzahl pro 6 Stunden, dividiert durch die Zahl der Beobachtungen.
Der EDso-Wert ist die Dosis, bei der die Hälfte der maximal möglichen Punktzahl (5 Punkte multipliziert mit der Zahl der Beobachtungen) erreicht wird.

[3] = tested on: Tetrabenazin-Ptosis; test: Effect on tetrabenazine ptosis (TBZ method, Methode 1); type: in vivo, Maus; conditions: for ED50: Mus musculus
Procedure: Sechs männl. Tieren wird die entsprechende Menge eines Homogenats der jeweiligen Substanz in wäßriger Carboxymethylcellulose oder Methyl-hydroxyethylcellulose 30 Min. vor der Behandlung mit Tetrabenazin (40 mg/kg intraperitoneal) mit Schlundsonde gefüttert. […]

[4] = tested on: Aufnahme von 14C-Noradrenalin in Synaptosomen; test: Inhibition of noradrenaline reuptake in synaptosomes (Methode 4); type: biochemical, Ratte; conditions: 50 % inhibition of 14C-noradrenaline uptake, 37 °C, 4 min
Procedure: Synaptosomen aus Rattenhirn werden nach der Methode von Whittaker (Handbook of Neurochemistry 2 , 327-364, Editor A. Lajtha; London and New York, 1969) isoliert und die Monoamin-Aufnahme nach der Methode von Schacht und Heptner gemessen (Biochemical Pharmac. 23 , 3413-3422). Die 14C Noradrenalin-Aufnahme wurde in einem Krebs-Henseleit-Bikarbonatpuffer pH 7,4, der 11 Millimol Glucose enthielt, gemessen. 2,5 ml der Synaptosomen-Suspension wurden mit markiertem Noradrenalin bei 37 ° C inkubiert in Gegenwart von oder ohne Testsubstanz. Die Inkubationszeit betrug 4 Minuten. Die weitere Aufnahme wurde dann durch Abkühlen mit Eis gestoppt. Um nichtspezifische Adsorptionen auszuschließen, wurden Kontrollproben bei 0 ° C unter sonst gleichen Bedingungen inkubiert.
Die aufgenommenen Noradrenalinmengen wurden mit Hilfe der Membranfiltrationstechnik mit einem Millipore Sampling Manifold mit Cellulosenitratfiltern von 25 mm Durchmesser und 0,6 Mikrometer Porengröße gemessen. Die Synaptosomen wurden unter vermindertem Druck gesammelt und die Radioaktivität in einem Packard-Tricarb-Scintillationszähler bestimmt. Die Menge an angesammeltem Noradrenalin wurde angegeben als Prozent Radioaktivität, die zur Inkubationsmischung zugesetzt wurde.
Die ICso-Werte (inhibitory concentration) der nachstehenden Tabellen geben die Konzentrationen der Testsubstanzen an, welche die Aufnahme von ^14C-Noradrenalin zu 50 % hemmen.

[5] = tested on: Tiermodelle, prädiktiv für antidepressive Wirkung beim Menschen; test: General pharmacological testing in animal models predictive of antidepressant action in man; type: in vivo; conditions: result in words
Text: Bei der pharmakologischen Untersuchung des (+)-Enantiomeren der Verbindung der Formel I wurden unerwartet starke Wirkungen dieser Substanz in Tiermodellen, die als prädiktiv für antidepressive Wirkung beim Menschen gelten, gefunden.
Die pharmakologischen Prüfungen wurden mit bekannten Modellen, die als prädiktiv für antidepressive Wirkung beim Menschen gelten, durchgeführt. Das sind beispielsweise: die Beeinflussung der Tetrabenazin-Ptosis bei der Maus und die Potenzierung der Yohimbin-Toxizität bei Mäusen. Als weiteres Beurteilungskriterium wurde beispielsweise die Prüfung der Auslösung von Stereotypien an Ratten herangezogen.

[6] = tested on: Tiermodelle, prädiktiv für antidepressive Wirkung beim Menschen; conditions: as named in Deutsche Patentanmeldung P 36 28 545.5; cited from earlier work
[7] = Methode 1, mouse, 30 min before tetrabenazine 40 mg/kg i.p., confidence limits in brackets, repeated determinations
[8] = read-out: ED50, mg/kg p.o. (Vertrauensgrenzen), Methode 1, mouse, 30 min before tetrabenazine 40 mg/kg i.p., confidence limits in brackets, repeated determinations
[9] = Methode 1, mouse, p.o., 30 min before tetrabenazine 40 mg/kg i.p., confidence limits in brackets, repeated determinations, read-out: ED50, mg/kg p.o. (Vertrauensgrenzen)

SMILES | LD50, mg/kg p.o. [1] | keine Stereotypien bis [2] | ED50; mg/kg p.o. (Vertrauensgrenzen) [3, 7] | ED50 [3, 8] | further results
OC1(C(c2cccc(Cl)c2)n2ccnc2)C2CC3CC(C2)CC1C3 (stereo not drawn) | 4,4 mg/kg | > 300 mg/kg | – | – | –
Cc1cccc(C(n2ccnc2)C2(O)C3CC4CC(C3)CC2C4)c1 (stereo not drawn) [drawing 18] | 7,1 mg/kg | > 30 mg/kg | 1,7 (0,5-5,9) mg/kg | 1.5 mg/kg | IC50 [4]: 120 nM
Cc1cccc(C(n2ccnc2)C2(O)C3CC4CC(C3)CC2C4)c1 (single isomer, unassigned; enantiomere) [(-)-Enantiomere der Verbindung I] | – | – | – | – | pharmakologische Wirkung [5]: pharmakologisch unwirksam
OC(C(c1cccc(Cl)c1)n1ccnc1)C12CC3CC(CC(C3)C1)C2 (stereo not drawn) | 8,5 mg/kg | > 30 mg/kg | – | – | ED50 [3, 9]: 3.7 mg/kg
Cc1cccc(C(n2ccnc2)C2(O)C3CC4CC(C3)CC2C4)c1 (stereo not drawn) [(2-Hydroxy-2-adamantyl)-1-imidazolyl-3-tolyl-methan] | – | – | – | – | antidepressive Wirkung in prädiktiven Tiermodellen [6]: antidepressiv wirksam
CC(C)(C)C(O)C(c1ccc(-c2ccccc2)cc1)n1ccnc1 (stereo not drawn) | 5,3 mg/kg | > 30 mg/kg | – | – | ED50 [3, 9]: 3 mg/kg; IC50 [4]: > 1000 nM
Cc1cccc(C(n2ccnc2)C2(O)C3CC4CC(C3)CC2C4)c1 (single isomer, unassigned; (+)) [Beispiel 1] | 2,9 (0,2 - 41,3) mg/kg | keine Stereotypien bis 100 mg/kg p.o. | 1,2 (0,3 - 3,5) mg/kg and 1,9 (1,0 - 3,5) mg/kg and 1,4 (0,7 - 2,7) mg/kg | 1.3 mg/kg and 1.75 mg/kg | LD50 umgerechnet (F:O,68) auf äquimolare Menge Base (nach Beispiel 2) ([1]; p.o., tested as hydrogentartrate, converted to equimolar amount of base, 1080 min): 2,0 (0,1 - 28,1) mg/kg
C=CCC1(C(O)C(c2cccc(Cl)c2)n2ccnc2)CCCCC1 (stereo not drawn) | – | – | 6,1 (0,5-72,9) mg/kg | 3.9 mg/kg | –
OC1(C(c2ccc3ccccc3c2)n2ccnc2)C2CC3CC(C2)CC1C3 (stereo not drawn) | 3,2 mg/kg | – | – | 3 mg/kg | –
OC1(C(c2cccc(Cl)c2)n2ccnc2)C2CC3CC(C2)CC1C3 (single isomer, unassigned) | 8,5 (0,5-130) mg/kg | > 30 mg/kg | 2,3 (0,9-5,8) mg/kg | 2.9 mg/kg | LD50, mg/kg p.o. ([1]; 1080 min): 4,6 mg/kg; IC50 [4]: 120 nM
OC1(C(c2cccc(Cl)c2)n2ccnc2)C2CC3CC(C2)CC1C3 (single isomer, unassigned; (+)) [(+)-(2-Hydroxy-2-adamantyl)-1-imidazolyl-(3-chlorphenyl)-methan] | – | – | – | – | pharmakologische Wirkung [5]: geringere Wirkung
COc1ccc(C(n2ccnc2)C2(O)C3CC4CC(C3)CC2C4)cc1OC (stereo not drawn) | 3,0 mg/kg | – | – | 3 mg/kg | –
CCCC(C)(C)C(O)C(c1ccc(-c2ccccc2)cc1)n1ccnc1 (stereo not drawn) | 24,5 mg/kg | keine Stereotypien | – | – | –
